Measured values from US20120122860A1, “SOLID FORMS OF SULFONAMIDES AND AMINO ACIDS” (Plexxikon, Inc., priority 2009, published 2012).

Tests used:
Fms = Fms (Homo sapiens, UniProt P07333); assay: Kinase activity assay, Fms
Kit = Kit (Homo sapiens, UniProt P10721); assay: Kinase activity assay, Kit
MAP4K4 = MAP4K4 (Homo sapiens, UniProt O95819); assay: Kinase activity assay, MAP4K4
B-Raf V600E = B-Raf V600E (Homo sapiens, UniProt P15056, V600E); assay: Kinase activity assay, B-Raf V600E; assay type: biochemical; settings: read-out: activity toward kinase B-Raf V600E, IC50
B-Raf = B-Raf (Homo sapiens, UniProt P15056); assay: Kinase activity assay, B-Raf; assay type: biochemical; settings: read-out: activity toward kinase B-Raf, IC50
A-Raf = target: T1, A-Raf (Homo sapiens, UniProt P10398); assay: Kinase activity assay, A-Raf
T1 sequence (P10398 1-606): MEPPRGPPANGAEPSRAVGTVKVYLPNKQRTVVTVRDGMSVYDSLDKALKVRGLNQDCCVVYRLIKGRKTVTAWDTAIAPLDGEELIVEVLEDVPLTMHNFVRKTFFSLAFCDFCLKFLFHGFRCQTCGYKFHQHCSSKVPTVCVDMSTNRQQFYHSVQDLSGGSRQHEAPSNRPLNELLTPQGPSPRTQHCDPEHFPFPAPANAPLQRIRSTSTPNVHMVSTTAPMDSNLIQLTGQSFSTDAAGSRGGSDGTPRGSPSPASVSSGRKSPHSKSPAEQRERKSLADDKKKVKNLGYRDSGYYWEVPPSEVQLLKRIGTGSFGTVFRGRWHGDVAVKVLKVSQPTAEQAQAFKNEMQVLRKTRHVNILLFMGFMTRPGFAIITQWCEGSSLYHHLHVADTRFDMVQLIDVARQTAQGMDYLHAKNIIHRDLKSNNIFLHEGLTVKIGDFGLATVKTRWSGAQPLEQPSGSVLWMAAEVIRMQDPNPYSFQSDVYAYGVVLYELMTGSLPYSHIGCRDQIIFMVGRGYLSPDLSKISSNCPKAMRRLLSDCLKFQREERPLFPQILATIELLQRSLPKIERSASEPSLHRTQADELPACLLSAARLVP

Kdr = Kdr (Homo sapiens, UniProt P35968); assay: Kinase activity assay, Kdr
C-Raf = C-Raf (Homo sapiens, UniProt P04049); assay: Kinase activity assay, C-Raf
Src = Src (Homo sapiens, UniProt P12931); assay: Kinase activity assay, Src

Measured: IC50

Sequence of Kit (P10721 26-976): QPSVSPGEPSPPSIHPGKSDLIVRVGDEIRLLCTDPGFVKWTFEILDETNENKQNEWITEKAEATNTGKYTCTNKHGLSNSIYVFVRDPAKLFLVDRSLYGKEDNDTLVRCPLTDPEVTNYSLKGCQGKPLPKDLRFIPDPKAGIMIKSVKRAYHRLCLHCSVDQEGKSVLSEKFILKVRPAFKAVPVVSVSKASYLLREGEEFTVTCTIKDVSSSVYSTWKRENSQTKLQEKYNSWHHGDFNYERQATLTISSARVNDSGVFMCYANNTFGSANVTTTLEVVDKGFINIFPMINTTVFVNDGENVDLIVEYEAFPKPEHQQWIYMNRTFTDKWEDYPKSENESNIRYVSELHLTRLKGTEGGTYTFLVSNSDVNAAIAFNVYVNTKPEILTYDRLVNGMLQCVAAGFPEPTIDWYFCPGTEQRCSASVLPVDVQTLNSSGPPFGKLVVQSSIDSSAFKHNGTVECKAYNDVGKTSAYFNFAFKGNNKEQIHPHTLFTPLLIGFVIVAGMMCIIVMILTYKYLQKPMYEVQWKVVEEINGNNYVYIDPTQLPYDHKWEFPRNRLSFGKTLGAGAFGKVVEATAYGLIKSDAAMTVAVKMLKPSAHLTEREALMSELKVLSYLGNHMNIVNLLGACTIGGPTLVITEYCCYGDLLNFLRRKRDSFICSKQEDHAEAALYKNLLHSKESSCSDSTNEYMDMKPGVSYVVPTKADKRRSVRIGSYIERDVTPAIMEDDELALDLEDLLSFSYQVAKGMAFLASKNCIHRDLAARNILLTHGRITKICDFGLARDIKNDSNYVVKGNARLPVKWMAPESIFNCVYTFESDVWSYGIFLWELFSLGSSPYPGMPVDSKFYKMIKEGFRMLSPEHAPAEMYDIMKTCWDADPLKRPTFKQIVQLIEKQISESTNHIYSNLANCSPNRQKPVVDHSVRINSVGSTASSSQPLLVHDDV
Sequence of Fms (P07333 20-972): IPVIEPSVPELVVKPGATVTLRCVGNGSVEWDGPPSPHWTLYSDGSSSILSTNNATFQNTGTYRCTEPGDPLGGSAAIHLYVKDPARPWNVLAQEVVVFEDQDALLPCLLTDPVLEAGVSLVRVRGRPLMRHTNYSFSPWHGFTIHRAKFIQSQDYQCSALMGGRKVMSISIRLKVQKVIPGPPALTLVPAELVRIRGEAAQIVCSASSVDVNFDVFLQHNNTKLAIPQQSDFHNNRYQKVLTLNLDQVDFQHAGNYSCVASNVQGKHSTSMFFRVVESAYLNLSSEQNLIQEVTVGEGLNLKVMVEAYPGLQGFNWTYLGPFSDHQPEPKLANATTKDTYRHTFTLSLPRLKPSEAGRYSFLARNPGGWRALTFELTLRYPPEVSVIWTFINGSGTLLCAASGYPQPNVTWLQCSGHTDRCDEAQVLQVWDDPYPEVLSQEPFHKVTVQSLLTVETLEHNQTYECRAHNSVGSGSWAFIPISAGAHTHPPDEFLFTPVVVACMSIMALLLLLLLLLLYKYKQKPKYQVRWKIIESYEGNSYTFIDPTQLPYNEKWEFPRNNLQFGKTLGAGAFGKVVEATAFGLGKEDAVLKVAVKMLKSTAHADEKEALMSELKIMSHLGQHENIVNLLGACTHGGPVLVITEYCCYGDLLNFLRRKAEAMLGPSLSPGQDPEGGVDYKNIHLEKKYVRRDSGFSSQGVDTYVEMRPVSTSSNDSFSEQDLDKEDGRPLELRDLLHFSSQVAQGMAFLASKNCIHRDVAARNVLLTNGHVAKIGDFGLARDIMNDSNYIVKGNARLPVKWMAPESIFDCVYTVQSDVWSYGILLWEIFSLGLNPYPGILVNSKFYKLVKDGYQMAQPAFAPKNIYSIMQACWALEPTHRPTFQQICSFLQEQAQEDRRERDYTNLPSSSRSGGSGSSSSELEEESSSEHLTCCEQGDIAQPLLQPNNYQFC
Sequence of Src (P12931 whole entry): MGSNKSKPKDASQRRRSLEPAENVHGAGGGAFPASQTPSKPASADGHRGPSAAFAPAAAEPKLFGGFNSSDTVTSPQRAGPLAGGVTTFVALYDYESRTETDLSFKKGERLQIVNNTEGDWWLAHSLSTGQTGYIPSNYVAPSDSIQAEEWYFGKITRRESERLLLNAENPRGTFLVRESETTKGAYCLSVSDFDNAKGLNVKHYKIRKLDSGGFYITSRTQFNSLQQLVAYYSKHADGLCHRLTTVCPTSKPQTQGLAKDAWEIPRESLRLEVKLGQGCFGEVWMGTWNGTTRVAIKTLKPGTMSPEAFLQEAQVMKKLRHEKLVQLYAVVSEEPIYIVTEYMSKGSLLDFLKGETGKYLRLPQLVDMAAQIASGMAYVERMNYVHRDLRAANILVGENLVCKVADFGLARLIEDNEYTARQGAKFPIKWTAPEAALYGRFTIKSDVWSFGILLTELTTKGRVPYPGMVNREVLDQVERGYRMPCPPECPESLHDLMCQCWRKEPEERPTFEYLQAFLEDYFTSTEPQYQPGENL
Sequence of B-Raf (P15056 whole entry): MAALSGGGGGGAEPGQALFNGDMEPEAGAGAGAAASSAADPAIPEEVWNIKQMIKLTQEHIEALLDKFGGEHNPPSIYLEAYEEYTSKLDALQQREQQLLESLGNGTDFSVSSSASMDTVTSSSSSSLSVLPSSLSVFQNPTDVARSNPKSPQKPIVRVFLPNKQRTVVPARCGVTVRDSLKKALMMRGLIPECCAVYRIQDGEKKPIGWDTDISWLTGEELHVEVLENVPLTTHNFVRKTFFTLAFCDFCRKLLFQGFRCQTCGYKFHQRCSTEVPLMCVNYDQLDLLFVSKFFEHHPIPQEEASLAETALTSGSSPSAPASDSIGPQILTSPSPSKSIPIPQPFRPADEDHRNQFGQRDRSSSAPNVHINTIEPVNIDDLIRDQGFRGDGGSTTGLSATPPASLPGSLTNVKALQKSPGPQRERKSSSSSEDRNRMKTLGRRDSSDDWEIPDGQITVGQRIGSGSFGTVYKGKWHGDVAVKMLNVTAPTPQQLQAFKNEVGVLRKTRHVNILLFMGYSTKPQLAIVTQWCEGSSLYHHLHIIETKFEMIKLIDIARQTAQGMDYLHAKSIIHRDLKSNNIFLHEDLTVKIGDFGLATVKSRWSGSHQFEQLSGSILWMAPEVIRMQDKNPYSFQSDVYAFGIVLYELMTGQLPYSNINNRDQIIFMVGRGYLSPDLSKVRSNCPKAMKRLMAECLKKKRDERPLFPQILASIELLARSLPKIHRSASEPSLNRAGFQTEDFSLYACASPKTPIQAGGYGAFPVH
Sequence of B-Raf V600E (P15056 whole entry V600E): as the sequence (P15056 whole entry) above, with V600E counted along it
Sequence of Kdr (P35968 20-1356): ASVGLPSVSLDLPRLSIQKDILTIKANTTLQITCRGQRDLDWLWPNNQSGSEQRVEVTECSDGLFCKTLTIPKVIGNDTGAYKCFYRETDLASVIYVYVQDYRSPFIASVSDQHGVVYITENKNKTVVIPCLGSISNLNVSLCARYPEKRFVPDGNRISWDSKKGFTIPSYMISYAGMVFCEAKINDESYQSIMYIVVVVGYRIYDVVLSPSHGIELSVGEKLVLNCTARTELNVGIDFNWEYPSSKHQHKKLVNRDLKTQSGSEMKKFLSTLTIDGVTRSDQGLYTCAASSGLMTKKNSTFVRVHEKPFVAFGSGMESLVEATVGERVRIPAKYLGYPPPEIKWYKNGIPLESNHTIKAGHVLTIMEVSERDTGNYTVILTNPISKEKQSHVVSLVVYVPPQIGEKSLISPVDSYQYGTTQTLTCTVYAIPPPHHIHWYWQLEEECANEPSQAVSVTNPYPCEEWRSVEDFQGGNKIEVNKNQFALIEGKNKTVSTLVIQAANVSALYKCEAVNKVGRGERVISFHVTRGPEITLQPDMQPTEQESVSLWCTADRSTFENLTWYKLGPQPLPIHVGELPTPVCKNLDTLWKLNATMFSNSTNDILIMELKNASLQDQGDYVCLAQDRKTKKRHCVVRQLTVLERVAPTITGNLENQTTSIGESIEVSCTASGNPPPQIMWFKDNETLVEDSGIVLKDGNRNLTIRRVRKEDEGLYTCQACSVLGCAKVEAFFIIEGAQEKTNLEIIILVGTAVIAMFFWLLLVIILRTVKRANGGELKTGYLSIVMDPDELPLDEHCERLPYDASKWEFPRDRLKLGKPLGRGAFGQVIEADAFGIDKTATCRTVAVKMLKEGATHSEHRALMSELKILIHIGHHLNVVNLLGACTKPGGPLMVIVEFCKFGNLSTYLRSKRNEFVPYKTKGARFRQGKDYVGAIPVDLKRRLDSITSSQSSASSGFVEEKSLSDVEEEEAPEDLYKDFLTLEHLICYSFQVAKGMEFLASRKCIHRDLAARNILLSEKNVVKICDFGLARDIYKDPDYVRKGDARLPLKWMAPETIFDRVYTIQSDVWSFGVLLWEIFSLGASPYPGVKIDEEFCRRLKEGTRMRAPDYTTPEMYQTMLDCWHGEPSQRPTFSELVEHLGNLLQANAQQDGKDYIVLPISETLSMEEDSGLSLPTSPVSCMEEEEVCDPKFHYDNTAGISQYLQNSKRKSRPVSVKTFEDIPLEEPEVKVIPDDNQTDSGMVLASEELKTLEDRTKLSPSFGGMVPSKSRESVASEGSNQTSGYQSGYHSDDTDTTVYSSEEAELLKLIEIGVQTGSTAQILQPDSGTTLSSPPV

O=C(c1c(F)ccc(NS(=O)(=O)c2cc(F)ccc2F)c1F)c1c[nH]c2ncc(Cl)cc12 [P-2002, N-[3-(5-Chloro-1H-pyrrolo[2,3-b]pyridine-3-carbonyl)-2,4-difluoro-phenyl]-2,5-difluoro-benzenesulfonamide]
≤ 10 µM: all assays above

COc1cnc2[nH]cc(C(=O)c3c(F)ccc(NS(=O)(=O)c4cc(F)ccc4F)c3F)c2c1 [P-2010, N-[2,4-Difluoro-3-(5-methoxy-1H-pyrrolo[2,3-b]pyridine-3-carbonyl)-phenyl]-2,5-difluoro-benzenesulfonamide]
≤ 10 µM: all assays above

Cc1cnc2[nH]cc(C(=O)c3c(F)ccc(NS(=O)(=O)c4cc(F)ccc4F)c3F)c2c1 [P-2015, N-[2,4-Difluoro-3-(5-methyl-1H-pyrrolo[2,3-b]pyridine-3-carbonyl)-phenyl]-2,5-difluoro-benzenesulfonamide]
≤ 10 µM: all assays above

O=C(c1c(F)ccc(NS(=O)(=O)c2ccccc2F)c1F)c1c[nH]c2nccc(Cl)c12 [P-2017, N-[3-(4-Chloro-1H-pyrrolo[2,3-b]pyridine-3-carbonyl)-2,4-difluoro-phenyl]-2-fluoro-benzenesulfonamide]
≤ 10 µM: all assays above

O=C(c1c(F)ccc(NS(=O)(=O)c2cc(F)ccc2F)c1F)c1c[nH]c2nccc(Cl)c12 [P-2018, N-[3-(4-Chloro-1H-pyrrolo[2,3-b]pyridine-3-carbonyl)-2,4-difluoro-phenyl]-2,5-difluoro-benzenesulfonamide]
≤ 10 µM: all assays above

Cc1cnc2[nH]cc(C(=O)c3c(F)ccc(NS(=O)(=O)CCC(F)(F)F)c3F)c2c1 [P-2328, 3,3,3-Trifluoro-propane-1-sulfonic acid [2,4-difluoro-3-(5-methyl-1H-pyrrolo[2,3-b]pyridine-3-carbonyl)-phenyl]-amide]
not listed: Fms
≤ 10 µM: all other assays above

O=C(c1c(F)ccc(NS(=O)(=O)CCC(F)(F)F)c1F)c1c[nH]c2nccc(Cl)c12 [P-2329, 3,3,3-Trifluoro-propane-1-sulfonic acid [3-(4-chloro-1H-pyrrolo[2,3-b]pyridine-3-carbonyl)-2,4-difluoro-phenyl]-amide]
not listed: Fms
≤ 10 µM: all other assays above

COc1cnc2[nH]cc(C(=O)c3c(F)ccc(NS(=O)(=O)CC(F)(F)F)c3F)c2c1 [P-2335, 2,2,2-Trifluoro-ethanesulfonic acid [2,4-difluoro-3-(5-methoxy-1H-pyrrolo[2,3-b]pyridine-3-carbonyl)-phenyl]-amide]
not listed: Fms
≤ 10 µM: all other assays above

O=C(c1c(F)ccc(NS(=O)(=O)CC(F)(F)F)c1F)c1c[nH]c2nccc(Cl)c12 [P-2338, 2,2,2-Trifluoro-ethanesulfonic acid [3-(4-chloro-1H-pyrrolo[2,3-b]pyridine-3-carbonyl)-2,4-difluoro-phenyl]-amide]
not listed: Fms
≤ 10 µM: all other assays above

O=C(c1c(F)ccc(NS(=O)(=O)CC(F)(F)F)c1F)c1c[nH]c2ncc(Cl)cc12 [P-2339, 2,2,2-Trifluoro-ethanesulfonic acid [3-(5-chloro-1H-pyrrolo[2,3-b]pyridine-3-carbonyl)-2,4-difluoro-phenyl]-amide]
not listed: Kit
≤ 10 µM: all other assays above

COc1cnc2[nH]cc(C(=O)c3c(F)ccc(NS(=O)(=O)C(F)(F)F)c3F)c2c1 [P-2347, N-[2,4-Difluoro-3-(5-methoxy-1H-pyrrolo[2,3-b]pyridine-3-carbonyl)-phenyl]-C,C,C-trifluoro-methanesulfonamide]
not listed: Fms
≤ 10 µM: all other assays above

O=C(c1c(F)ccc(NS(=O)(=O)N2CCCC2)c1F)c1c[nH]c2ncc(Cl)cc12 [P-2375, Pyrrolidine-1-sulfonic acid [3-(5-chloro-1H-pyrrolo[2,3-b]pyridine-3-carbonyl)-2,4-difluoro-phenyl]-amide]
not listed: Fms
≤ 10 µM: all other assays above
